Assay results from ChEMBL document CHEMBL4507286 (2021).

How the values were obtained:
[1] = biological target: Activin receptor type-1B (Homo sapiens) (UniProt P36896)
[2] = biological target: RAC-beta serine/threonine-protein kinase (Homo sapiens) (UniProt P31751)
[3] = system: ALK tyrosine kinase receptor (Homo sapiens), Q9UM73 [C1156Y]
[4] = biological target: 5'-AMP-activated protein kinase catalytic subunit alpha-1 (Homo sapiens) (UniProt Q13131)
[5] = biological target: Protein-tyrosine kinase 6 (Homo sapiens) (UniProt Q13882)
[6] = biological target: Cyclin-dependent kinase 13 (Homo sapiens) (UniProt Q14004)
[7] = biological target: Serine/threonine-protein kinase Chk1 (Homo sapiens) (UniProt O14757)
[8] = biological target: Serine/threonine-protein kinase Chk2 (Homo sapiens) (UniProt O96017)
[9] = biological target: Dual specificity protein kinase CLK4 (Homo sapiens, UniProt Q9HAZ1)
[10] = biological target: Macrophage colony-stimulating factor 1 receptor (Homo sapiens) (UniProt P07333)
[11] = biological target: Casein kinase I isoform alpha (Homo sapiens) (UniProt P48729)
[12] = biological target: Casein kinase II subunit alpha (Homo sapiens) (UniProt P68400)
[13] = biological target: Death-associated protein kinase 1 (Homo sapiens) (UniProt P53355)
[14] = biological target: Discoidin domain-containing receptor 2 (Homo sapiens) (UniProt Q16832)
[15] = biological target: Ephrin type-B receptor 1 (Homo sapiens) (UniProt P54762)
[16] = system: Receptor-type tyrosine-protein kinase FLT3 (Homo sapiens), P36888 [UNDEFINED MUTATION]
[17] = system: Receptor-type tyrosine-protein kinase FLT3 (Homo sapiens), P36888 [K663Q]
[18] = biological target: Rhodopsin kinase GRK7 (Homo sapiens) (UniProt Q8WTQ7)
[19] = biological target: Interleukin-1 receptor-associated kinase 1 (Homo sapiens) (UniProt P51617)
[20] = biological target: Mitogen-activated protein kinase 10 (Homo sapiens) (UniProt P53779)
[21] = system: Leucine-rich repeat serine/threonine-protein kinase 2 (Homo sapiens), Q5S007 [G2019S]
[22] = biological target: Mitogen-activated protein kinase kinase kinase 13 (Homo sapiens) (UniProt O43283)
[23] = biological target: MAP kinase-activated protein kinase 2 (Homo sapiens) (UniProt P49137)
[24] = biological target: Serine/threonine-protein kinase MRCK beta (Homo sapiens) (UniProt Q9Y5S2)
[25] = biological target: Serine/threonine-protein kinase 3 (Homo sapiens) (UniProt Q13188)
[26] = biological target: Serine/threonine-protein kinase 38-like (Homo sapiens) (UniProt Q9Y2H1)
[27] = biological target: Serine/threonine-protein kinase Nek10 (Homo sapiens) (UniProt Q6ZWH5)
[28] = biological target: Serine/threonine-protein kinase NIM1 (Homo sapiens) (UniProt Q8IY84)
[29] = biological target: Serine/threonine-protein kinase PAK 4 (Homo sapiens) (UniProt O96013)
[30] = biological target: Calcium-dependent protein kinase 1 (Plasmodium falciparum) (UniProt P62344)
[31] = biological target: cAMP-dependent protein kinase catalytic subunit alpha (Homo sapiens) (UniProt P17612)
[32] = biological target: Protein kinase C iota type (Homo sapiens) (UniProt P41743)
[33] = biological target: Serine/threonine-protein kinase D1 (Homo sapiens) (UniProt Q15139)
[34] = biological target: Receptor-interacting serine/threonine-protein kinase 1 (Homo sapiens) (UniProt Q13546)
[35] = biological target: Ribosomal protein S6 kinase alpha-4 (Homo sapiens) (UniProt O75676)
[36] = biological target: Ribosomal protein S6 kinase alpha-2 (Homo sapiens) (UniProt Q15349)
[37] = biological target: SRSF protein kinase 3 (Homo sapiens) (UniProt Q9UPE1)
[38] = biological target: BDNF/NT-3 growth factors receptor (Homo sapiens) (UniProt Q16620)
[39] = biological target: Serine/threonine-protein kinase ULK1 (Homo sapiens) (UniProt O75385)
[40] = biological target: Serine/threonine-protein kinase 32B (Homo sapiens) (UniProt Q9NY57)
[41] = biological target: 5-hydroxytryptamine receptor 3A (Homo sapiens) (UniProt P46098); details: Compound concentration 10.0 uM
[42] = biological target: 5-hydroxytryptamine receptor 5A (Homo sapiens) (UniProt P47898); details: Compound concentration 10.0 uM
[43] = biological target: 5-hydroxytryptamine receptor 7 (Homo sapiens) (UniProt P34969); details: Compound concentration 10.0 uM
[44] = biological target: Sodium-dependent serotonin transporter (Homo sapiens) (UniProt P31645); details: Compound concentration 10.0 uM
[45] = biological target: Histamine H3 receptor (Homo sapiens) (UniProt Q9Y5N1); details: Compound concentration 10.0 uM
[46] = Compound concentration 1000.0 nM
[47] = Compound concentration 100.0 nM

Chain of Casein kinase I isoform alpha (Homo sapiens) (P48729 2-337 limits assumed): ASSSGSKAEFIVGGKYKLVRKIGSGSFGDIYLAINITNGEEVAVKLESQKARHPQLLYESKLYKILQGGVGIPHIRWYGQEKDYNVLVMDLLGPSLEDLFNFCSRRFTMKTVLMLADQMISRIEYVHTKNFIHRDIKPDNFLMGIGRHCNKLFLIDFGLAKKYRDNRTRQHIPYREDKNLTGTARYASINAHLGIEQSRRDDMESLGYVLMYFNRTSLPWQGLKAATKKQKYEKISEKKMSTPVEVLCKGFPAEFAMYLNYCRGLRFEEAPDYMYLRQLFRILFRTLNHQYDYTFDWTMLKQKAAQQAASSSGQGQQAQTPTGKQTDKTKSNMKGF
Chain of Cyclin-dependent kinase 13 (Homo sapiens) (Q14004 whole entry, looked up): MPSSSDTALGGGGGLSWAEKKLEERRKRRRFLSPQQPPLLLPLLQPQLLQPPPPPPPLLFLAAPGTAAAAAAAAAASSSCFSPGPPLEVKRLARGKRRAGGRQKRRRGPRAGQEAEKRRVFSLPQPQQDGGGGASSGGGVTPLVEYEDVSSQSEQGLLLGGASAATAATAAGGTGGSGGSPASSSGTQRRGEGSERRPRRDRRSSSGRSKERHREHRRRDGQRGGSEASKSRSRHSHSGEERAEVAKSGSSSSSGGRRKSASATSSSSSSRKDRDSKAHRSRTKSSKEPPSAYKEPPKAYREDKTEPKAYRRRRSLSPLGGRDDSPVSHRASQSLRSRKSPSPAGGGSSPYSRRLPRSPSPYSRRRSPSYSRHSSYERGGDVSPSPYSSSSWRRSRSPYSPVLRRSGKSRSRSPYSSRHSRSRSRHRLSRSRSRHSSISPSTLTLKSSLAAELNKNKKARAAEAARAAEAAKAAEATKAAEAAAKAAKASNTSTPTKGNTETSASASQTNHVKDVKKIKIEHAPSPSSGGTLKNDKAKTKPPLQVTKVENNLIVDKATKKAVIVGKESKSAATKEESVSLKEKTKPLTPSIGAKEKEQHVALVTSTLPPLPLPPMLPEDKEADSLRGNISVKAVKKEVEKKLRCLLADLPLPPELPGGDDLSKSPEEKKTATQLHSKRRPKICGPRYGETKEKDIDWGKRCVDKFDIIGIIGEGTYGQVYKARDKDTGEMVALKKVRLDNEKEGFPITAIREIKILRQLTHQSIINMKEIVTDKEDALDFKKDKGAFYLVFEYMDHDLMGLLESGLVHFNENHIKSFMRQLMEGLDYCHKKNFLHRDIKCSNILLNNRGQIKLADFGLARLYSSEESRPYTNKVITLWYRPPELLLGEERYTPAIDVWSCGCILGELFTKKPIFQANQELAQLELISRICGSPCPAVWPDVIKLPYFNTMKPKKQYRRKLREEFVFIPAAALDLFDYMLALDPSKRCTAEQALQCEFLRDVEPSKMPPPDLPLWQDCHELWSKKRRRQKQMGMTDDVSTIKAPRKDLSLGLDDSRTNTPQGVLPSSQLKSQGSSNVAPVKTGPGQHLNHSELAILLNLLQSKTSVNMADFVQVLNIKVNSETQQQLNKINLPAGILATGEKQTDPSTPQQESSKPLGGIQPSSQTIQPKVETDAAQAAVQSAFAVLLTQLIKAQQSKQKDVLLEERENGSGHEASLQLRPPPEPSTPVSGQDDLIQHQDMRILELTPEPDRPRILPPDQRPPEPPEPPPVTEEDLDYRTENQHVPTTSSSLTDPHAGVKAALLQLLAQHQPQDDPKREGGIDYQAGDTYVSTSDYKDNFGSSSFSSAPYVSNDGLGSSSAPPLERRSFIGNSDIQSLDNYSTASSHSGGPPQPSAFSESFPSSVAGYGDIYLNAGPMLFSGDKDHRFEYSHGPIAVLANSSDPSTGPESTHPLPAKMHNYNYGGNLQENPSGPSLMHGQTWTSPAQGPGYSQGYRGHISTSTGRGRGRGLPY
Chain of Protein kinase C iota type (Homo sapiens) (P41743 whole entry): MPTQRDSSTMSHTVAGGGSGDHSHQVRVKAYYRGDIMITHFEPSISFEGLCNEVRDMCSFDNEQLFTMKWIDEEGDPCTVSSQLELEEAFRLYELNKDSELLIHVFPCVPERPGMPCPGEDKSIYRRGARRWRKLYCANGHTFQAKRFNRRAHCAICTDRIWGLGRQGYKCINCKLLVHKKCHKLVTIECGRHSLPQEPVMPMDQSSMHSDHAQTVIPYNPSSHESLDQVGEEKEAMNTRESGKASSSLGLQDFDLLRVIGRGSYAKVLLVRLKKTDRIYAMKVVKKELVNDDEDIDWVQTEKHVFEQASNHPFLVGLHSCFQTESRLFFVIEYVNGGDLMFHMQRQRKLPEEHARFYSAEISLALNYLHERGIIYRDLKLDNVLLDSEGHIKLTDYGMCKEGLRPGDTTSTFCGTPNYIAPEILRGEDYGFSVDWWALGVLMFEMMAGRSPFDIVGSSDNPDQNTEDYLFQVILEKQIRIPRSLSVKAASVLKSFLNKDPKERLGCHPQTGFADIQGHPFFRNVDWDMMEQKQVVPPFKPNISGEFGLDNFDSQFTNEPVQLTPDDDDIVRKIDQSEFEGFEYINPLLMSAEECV
Chain of Rhodopsin kinase GRK7 (Homo sapiens) (Q8WTQ7 whole entry): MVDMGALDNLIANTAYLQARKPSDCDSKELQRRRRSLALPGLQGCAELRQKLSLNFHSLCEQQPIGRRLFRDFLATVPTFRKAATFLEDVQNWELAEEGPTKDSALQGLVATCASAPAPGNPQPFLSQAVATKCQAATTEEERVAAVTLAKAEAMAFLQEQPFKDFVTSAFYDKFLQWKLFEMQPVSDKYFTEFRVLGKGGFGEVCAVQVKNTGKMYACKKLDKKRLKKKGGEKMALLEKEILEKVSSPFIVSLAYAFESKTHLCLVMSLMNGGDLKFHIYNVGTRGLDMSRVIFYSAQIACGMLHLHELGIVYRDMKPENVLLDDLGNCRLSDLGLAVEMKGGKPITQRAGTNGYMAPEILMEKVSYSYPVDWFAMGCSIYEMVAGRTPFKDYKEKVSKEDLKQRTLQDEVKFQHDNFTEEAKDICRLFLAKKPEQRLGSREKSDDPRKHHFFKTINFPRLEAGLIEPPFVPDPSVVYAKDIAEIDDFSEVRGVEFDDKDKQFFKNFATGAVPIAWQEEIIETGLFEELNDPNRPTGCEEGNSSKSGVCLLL
Chain of ALK tyrosine kinase receptor (Homo sapiens), Q9UM73 [C1156Y] (Q9UM73 whole entry C1156Y, looked up): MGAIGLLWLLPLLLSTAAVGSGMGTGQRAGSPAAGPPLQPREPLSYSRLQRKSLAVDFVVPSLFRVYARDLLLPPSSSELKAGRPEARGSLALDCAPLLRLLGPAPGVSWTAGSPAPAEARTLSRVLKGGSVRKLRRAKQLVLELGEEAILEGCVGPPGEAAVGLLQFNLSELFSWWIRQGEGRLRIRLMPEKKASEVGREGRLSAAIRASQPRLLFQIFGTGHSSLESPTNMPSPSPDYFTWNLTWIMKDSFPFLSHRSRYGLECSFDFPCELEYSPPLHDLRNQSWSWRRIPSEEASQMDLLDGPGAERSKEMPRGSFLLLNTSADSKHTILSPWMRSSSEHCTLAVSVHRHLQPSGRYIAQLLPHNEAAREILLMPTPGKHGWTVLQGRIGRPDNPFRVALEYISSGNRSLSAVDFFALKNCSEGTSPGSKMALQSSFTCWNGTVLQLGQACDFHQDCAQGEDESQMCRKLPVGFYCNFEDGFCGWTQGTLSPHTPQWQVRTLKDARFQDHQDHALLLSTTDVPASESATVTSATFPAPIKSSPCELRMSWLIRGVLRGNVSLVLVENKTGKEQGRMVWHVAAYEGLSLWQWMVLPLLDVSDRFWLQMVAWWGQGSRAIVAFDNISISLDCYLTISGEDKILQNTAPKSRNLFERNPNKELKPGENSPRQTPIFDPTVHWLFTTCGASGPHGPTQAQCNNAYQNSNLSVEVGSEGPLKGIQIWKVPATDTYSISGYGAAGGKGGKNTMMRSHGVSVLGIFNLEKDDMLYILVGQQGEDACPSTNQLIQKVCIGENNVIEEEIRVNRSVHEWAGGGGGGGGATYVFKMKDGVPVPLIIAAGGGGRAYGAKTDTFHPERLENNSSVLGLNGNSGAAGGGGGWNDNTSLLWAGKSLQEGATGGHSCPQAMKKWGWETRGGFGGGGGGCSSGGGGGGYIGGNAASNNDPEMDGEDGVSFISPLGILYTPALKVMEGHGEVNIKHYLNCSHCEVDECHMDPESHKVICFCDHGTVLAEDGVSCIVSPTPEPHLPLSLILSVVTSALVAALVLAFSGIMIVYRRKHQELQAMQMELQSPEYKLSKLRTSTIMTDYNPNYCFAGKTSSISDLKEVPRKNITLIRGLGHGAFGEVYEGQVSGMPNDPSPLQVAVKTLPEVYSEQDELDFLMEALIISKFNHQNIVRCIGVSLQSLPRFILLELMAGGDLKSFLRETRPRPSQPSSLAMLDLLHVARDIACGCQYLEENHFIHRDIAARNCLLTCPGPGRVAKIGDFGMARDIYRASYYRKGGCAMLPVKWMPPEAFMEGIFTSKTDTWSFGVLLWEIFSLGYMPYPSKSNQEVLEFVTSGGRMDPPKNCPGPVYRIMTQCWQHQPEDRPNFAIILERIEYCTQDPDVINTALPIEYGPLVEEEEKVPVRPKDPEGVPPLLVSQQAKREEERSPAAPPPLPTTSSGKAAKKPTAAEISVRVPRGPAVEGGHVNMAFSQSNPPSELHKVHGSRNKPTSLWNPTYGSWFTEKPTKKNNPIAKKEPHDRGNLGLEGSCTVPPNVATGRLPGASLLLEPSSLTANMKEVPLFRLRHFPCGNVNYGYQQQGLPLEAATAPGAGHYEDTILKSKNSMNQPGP
Chain of 5-hydroxytryptamine receptor 3A (Homo sapiens) (P46098 whole entry): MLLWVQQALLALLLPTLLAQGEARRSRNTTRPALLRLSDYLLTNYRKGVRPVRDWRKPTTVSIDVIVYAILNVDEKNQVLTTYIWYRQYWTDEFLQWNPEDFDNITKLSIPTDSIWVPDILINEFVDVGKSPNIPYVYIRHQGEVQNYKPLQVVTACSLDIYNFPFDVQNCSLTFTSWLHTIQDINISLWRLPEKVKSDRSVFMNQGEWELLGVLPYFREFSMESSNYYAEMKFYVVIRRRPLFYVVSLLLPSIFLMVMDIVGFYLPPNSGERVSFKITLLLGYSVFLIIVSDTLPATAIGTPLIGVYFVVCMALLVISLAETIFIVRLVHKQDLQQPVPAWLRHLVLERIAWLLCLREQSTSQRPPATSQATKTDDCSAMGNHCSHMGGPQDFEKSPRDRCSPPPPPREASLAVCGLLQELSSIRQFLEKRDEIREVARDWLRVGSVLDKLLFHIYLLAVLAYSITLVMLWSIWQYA

Question: What does the source list for `C[C@H](NC(=O)Nc1cc2[nH]ncc2c(CO)n1)c1ccccn1` [ERKi-NC]?
Answer: residual activity [1, 46]: 76.1%; residual activity [2, 46]: 100%; residual activity [3, 46]: 100%; residual activity [4, 46]: 100%; residual activity [5, 46]: 100%; residual activity [6, 46]: 79%; residual activity [7, 46]: 100%; residual activity [8, 46]: 95.9%; residual activity [9, 46]: 78.8%; residual activity [10, 46]: 94.8%; residual activity [11, 46]: 56.5%; residual activity [12, 46]: 100%; residual activity [13, 46]: 100%; residual activity [14, 46]: 94.3%; residual activity [15, 46]: 100%; residual activity [16, 46]: 73.5%; residual activity [17, 46]: 93.5%; residual activity [18, 46]: 100%; residual activity [19, 46]: 100%; residual activity [20, 46]: 74.6%; residual activity [21, 46]: 88.8%; residual activity [22, 46]: 100%; residual activity [23, 46]: 100%; residual activity [24, 46]: 100%; residual activity [25, 46]: 82.2%; residual activity [26, 46]: 100%; residual activity [27, 46]: 53.8%; residual activity [28, 46]: 100%; residual activity [29, 46]: 90.2%; residual activity [30, 46]: 77.4%; residual activity [31, 46]: 87.7%; residual activity [32, 46]: 85.5%; residual activity [33, 46]: 89.4%; residual activity [34, 46]: 100%; residual activity [35, 46]: 100%; residual activity [36, 46]: 100%; residual activity [37, 46]: 100%; residual activity [38, 46]: 68.5%; residual activity [39, 46]: 100%; residual activity [40, 46]: 100%; inhibition [41]: -0.282%; inhibition [42]: 9.46%; inhibition [43]: 33.4%; inhibition [44]: -0.787%; inhibition [45]: 21.1%

Question: How did the residual activity [1, 47] turn out when `C[C@@H](NC(=O)Nc1cc2[nH]ncc2c(CO)n1)c1ccccc1` [ERKi] was run?
Answer: 100%

Question: And the residual activity [2, 47]?
Answer: 100%

Question: What about the residual activity [3, 47] of the same molecule?
Answer: 100%

Question: What about the residual activity [4, 47] of the same molecule?
Answer: 91%

Question: And the residual activity [5, 47]?
Answer: 86.6%

Question: What about the residual activity [6, 47] of the same molecule?
Answer: 45.7%

Question: And the residual activity [7, 47]?
Answer: 97.1%

Question: What about the residual activity [8, 47] of the same molecule?
Answer: 100%

Question: What about the residual activity [9, 47] of the same molecule?
Answer: 66.6%

Question: What about the residual activity [10, 47] of the same molecule?
Answer: 87.3%

Question: And the residual activity [11, 47]?
Answer: 84.6%

Question: What about the residual activity [12, 47] of the same molecule?
Answer: 94%

Question: And the residual activity [13, 47]?
Answer: 90.5%

Question: And the residual activity [14, 47]?
Answer: 98.5%

Question: And the residual activity [15, 47]?
Answer: 91.1%

Question: What about the residual activity [16, 47] of the same molecule?
Answer: 100%

Question: And the residual activity [17, 47]?
Answer: 96.5%

Question: And the residual activity [18, 47]?
Answer: 81.4%

Question: What about the residual activity [19, 47] of the same molecule?
Answer: 54.8%

Question: And the residual activity [20, 47]?
Answer: 68.1%

Question: And the residual activity [21, 47]?
Answer: 82.7%

Question: And the residual activity [22, 47]?
Answer: 100%

Question: And the residual activity [23, 47]?
Answer: 100%

Question: And the residual activity [24, 47]?
Answer: 99.8%

Question: And the residual activity [25, 47]?
Answer: 90.2%

Question: What about the residual activity [26, 47] of the same molecule?
Answer: 72.7%

Question: And the residual activity [27, 47]?
Answer: 100%

Question: What about the residual activity [28, 47] of the same molecule?
Answer: 100%

Question: And the residual activity [29, 47]?
Answer: 93.7%

Question: And the residual activity [30, 47]?
Answer: 82.9%

Question: And the residual activity [31, 47]?
Answer: 91.8%

Question: And the residual activity [32, 47]?
Answer: 100%

Question: What about the residual activity [33, 47] of the same molecule?
Answer: 100%

Question: And the residual activity [34, 47]?
Answer: 100%

Question: What about the residual activity [35, 47] of the same molecule?
Answer: 94.5%

Question: And the residual activity [36, 47]?
Answer: 90.7%

Question: And the residual activity [37, 47]?
Answer: 100%

Question: And the residual activity [38, 47]?
Answer: 63.6%

Question: What about the residual activity [39, 47] of the same molecule?
Answer: 48.6%

Question: What about the residual activity [40, 47] of the same molecule?
Answer: 96.6%

Question: And the inhibition [41]?
Answer: 4.36%

Question: And the inhibition [42]?
Answer: 1.39%

Question: And the inhibition [43]?
Answer: 21.8%

Question: What about the inhibition [44] of the same molecule?
Answer: 2.86%

Question: What about the inhibition [45] of the same molecule?
Answer: 7.46%
